Laboratory results from patent US9522928B2, “Mannosylated compounds useful for the prevention and the treatment of infectious diseases” (UNIVERSITE DE STRASBOURG, priority 2011, dated 2016).

Assays:
HIV-1 R5 = HIV-1 R5 trans-infection of MAGI-CCR5 cells mediated by DCs; assay type: cell-based
Method: ManC1, […] (comparative) and compounds of the invention (ManC24, ManC17, TriManC24, TriDiManC24, TriManinsatC24 and ManinsatC24) were serially diluted in water. Human DCs (1×10^5 in 200 μl ) were pre-treated with different concentrations of compounds, or mannan (Sigma) or culture medium alone, in RPMI 1640 medium containing 10% FBS for 45 min at 37° C., prior infection with HIV-1 (100 ng of p24Gag) for 3 h. Excess free virus and molecules were removed by three washes. DCs were then cocultured with MAGI -CCR5 cells (1×10^5) at 37° C. plated in a 48-well plate. After two days, viral infection of MAGI-CCR5 cells was quantitated following beta-galactosidase assays and enumerating blue cells by light microscopy.
The IC50 were determined by serial dilution of each compound. The trans-infection assays were repeated a minimum of three times, and the IC50 determined using KaleidaGraph.
To investigate the ability of the compounds of the invention to inhibit HIV-1 trans infection, we chose to infect human DCs in order to best mimic in vivo conditions. Human DCs were exposed to different compounds (namely, Mannan (control), ManC1 (comparative), ManC11 (comparative), ManC17, ManC24, TriManC24, TriDiManC24, ManinsatC24 and TriManinsatC24) for 45 min at 37° C., before inoculation with HIV-1 (strains R5 and X4) for 3 hours. After extensive washings to remove unbound virions and mannosides, DCs were then co-cultured with MAGI-CCR5 cells. This procedure allows precise quantification of HIV-1 replication in reporter MAGI-CCR5 cells by detection of beta-galactosidase activity. These cells express an integrated copy of the HIV long terminal repeat (LTR) fused to the beta-galactosidase reporter gene, and express the CD4 receptor and the CCR5 and CXCR4 co-receptors, required for entry of HIV-1 R5 and X4 respectively. Upon viral entry leading to viral Tat expression and activation of the LTR, these cells permit quantification of HIV trans-infection after two days.

[1] = biological target: T1, DC-SIGN expressed at the surface of DCs (Homo sapiens, UniProt Q9NNX6); assay: Competition with gp120-FITC binding to DCs, flow cytometry; assay type: cell-based; settings: 100 μM, 30 min pretreatment, competition not complete
T1 construct: endogenous in cells; host or cells: human monocyte-derived dendritic cells (GM-CSF/IL-4 differentiated)
T1 sequence (Q9NNX6 1-404): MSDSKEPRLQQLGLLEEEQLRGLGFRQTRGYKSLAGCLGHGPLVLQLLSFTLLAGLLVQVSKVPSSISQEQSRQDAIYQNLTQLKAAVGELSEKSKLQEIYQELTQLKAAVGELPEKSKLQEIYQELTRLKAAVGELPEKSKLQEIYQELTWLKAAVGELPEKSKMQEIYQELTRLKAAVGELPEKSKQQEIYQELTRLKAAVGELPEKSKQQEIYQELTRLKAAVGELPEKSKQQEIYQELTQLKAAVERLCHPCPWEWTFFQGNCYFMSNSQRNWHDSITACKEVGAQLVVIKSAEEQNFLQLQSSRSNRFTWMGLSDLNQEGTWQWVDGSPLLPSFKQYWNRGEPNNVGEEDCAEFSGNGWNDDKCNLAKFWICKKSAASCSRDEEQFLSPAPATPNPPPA
Method: Human DCs (1×10^5 in 100 μl) were aliquoted in a 96-well microtiter plate in RPMI 1640 medium without FBS. To assess the binding of HIV-1 glycoprotein 120, FITC conjugated recombinant gp120 HIV-1 IIIB (ImmunoDiagnostics Inc, Woburn, Mass. U.S.A.) was added to the cells (final concentration of 5 μg/ml) and incubated for 45 min at 37° C. For competition assays, cells were pretreated with either mannan (100 μg/ml final) or TriManC24 (100 μM) for 30 min at 37° C., followed by incubation with gp120-FITC for 45 min at 37° C. After washing with HBSS buffer (Lonza), expression of fluorescence intensity was analyzed on a FACSCalibur flow cytometer with the CellQuest Pro software
The ability of TriManC24 to inhibit the interactions of HIV-1 gp120 with DC-SIGN […] at the surface of DCs. Immature DCs were prepared by differentiation of human monocytes, in the presence of a cocktail of cytokines. The expression levels of DC-SIGN were controlled by flow cytometry. […] When cells were incubated with fluorescently-labeled gp120, a strong binding of gp120 to DCs was observed as compared with a lower interaction with monocytes (FIG. 1B).
A competition assays were performed by pre-incubating DCs with either TriManC24 or mannan, followed by the addition of gp120-FITC (FIG. 1C).

CCCCCCCCCCCCCCCCCCCCCCCCC(=O)NC(COCCC(=O)NCCOCCOCCOCCOC1OC(CO)C(O)C(O)C1O)(COCCC(=O)NCCOCCOCCOCCOC1OC(CO)C(O)C(O)C1O)COCCC(=O)NCCOCCOCCOCCOC1OC(CO)C(O)C(O)C1O (stereo not drawn) [TriManC24]
residual level of trans-infection (HIV-1 R5): 20%
inhibition of gp120 binding to DCs (in words) [1]: able to inhibit the binding of gp120-FITC to DCs
inhibition of gp120 binding to DCs (in words) ([1]; listed as TrimanC24): competed for the binding of soluble gp120 glycoprotein to DC-SIGN
